SMILES strings stand for the structures.

62 molecules from the RepoRT retention time repository can be followed below.

A short description of the series: RP, Waters ACQUITY UPLC HSS T3, 0.1 mL/min; A: water + 0.01% formic acid; B: acetonitrile + 0.01% formic acid; gradient (min/%B) 0/10 38/45 45/45 55/0 60/0. The note with it: stereoisomer not certain.
With `CNC(=O)Nc1ccc(Cl)c(Cl)c1` [1-(3,4-Dichlorophenyl)-3-methylurea], the LC retention time was determined as 20.5 min. In the case of `NC(=O)Nc1ccc(Cl)c(Cl)c1` [1-(3,4-Dichlorophenyl)urea], the LC retention time is 16.9 min. For the molecule `Cc1cc(Cl)ccc1OCC(=O)O` [2,4-mcpa], the LC retention time worked out at 17.2 min. The same measure for `Oc1ccccc1-c1ccccc1` [2-Phenylphenol]: 30.2 min; for `Cc1ccc(C(=O)O)c(Cl)c1` [2-chloro-4-methylbenzoic acid]: 44.3 min. The same measure for `Nc1ccc(O)cc1` [4-Aminophenol]: 1.3 min; for `NCCc1c[nH]c2ccc(O)cc12` [5-Hydroxytryptamine]: 4.3 min; for `CCOCN(C(=O)CCl)c1c(C)cccc1CC` [Acetochlor]: 40.6 min. For the molecule `CC(=O)OCC[N+](C)(C)C` [Acetylcholine], the LC retention time was found to be 1.39 min.

`CC(=O)Oc1ccccc1C(=O)O` [Acetylsalicylic acid]: the LC retention time came to 8.55 min. The same measure for `COc1cc2c(c3oc(=O)c4c(c13)CCC4=O)C1C=COC1O2` (configuration not stated) [Aflatoxin B1]: 17.5 min; for `CCc1cccc(CC)c1N(COC)C(=O)CCl` [Alachlor]: 39.4 min. With `CC12CCC(=O)C=C1CCC1C2C(O)CC2(C=O)C(C(=O)CO)CCC12` (configuration not stated) [Aldosterone], the LC retention time is 13.8 min. Regarding `CC(=O)C1CCC2C3CCC4CC(O)CCC4(C)C3CCC12C` (configuration not stated) [Allopregnanolone], the LC retention time is 43.9 min.

Consider `CCNc1nc(NC(C)C)nc(SC)n1` [Ametryn], for which the LC retention time worked out at 20.1 min. For `COc1cc(OC)nc(NC(=O)NS(=O)(=O)N(C)S(C)(=O)=O)n1` [Amidosulfuron], the LC retention time was found to be 21.2 min. Take `Nc1nc2ccccc2[nH]1` [Aminobenzimidazole]: the LC retention time stood at 4.74 min. The same measure for `CC12CCC3C(CCC4=CC(=O)CCC43C)C1CCC2=O` (configuration not stated) [Androstenedione]: 31.5 min; for `Nc1ccccc1` [Aniline]: 3.1 min. The same measure for `CCCCCC=CCC=CCC=CCC=CCCCC(=O)O` [Arachidonic Acid]: 47 min. The same measure for `CCNc1nc(N)nc(Cl)n1` [Atrazine-desisopropyl]: 6.98 min. For `COC=C(C(=O)OC)c1ccccc1Oc1cc(Oc2ccccc2C#N)ncn1` [Azoxystrobin], the LC retention time stood at 38 min. The same measure for `CCC(Oc1ccc(F)c(C(F)(F)F)c1)C(=O)NCc1ccccc1` (configuration not stated) [Beflubutamid]: 42.7 min; for `Cn1cc(C(=O)Nc2ccc(F)cc2-c2ccc(Cl)c(Cl)c2)c(C(F)F)n1` [Bixafen]: 42.2 min. For the molecule `O=C(Nc1ccccc1-c1ccc(Cl)cc1)c1cccnc1Cl` [Boscalid], the LC retention time was 38 min.

Take `CCC(C)n1c(=O)[nH]c(C)c(Br)c1=O` (configuration not stated) [Bromacil]: the LC retention time was determined as 14.3 min.

As for `Cn1c(=O)c2c(ncn2C)n(C)c1=O` [Caffeine], the LC retention time came to 5.71 min. `NC(=O)N1c2ccccc2C=Cc2ccccc21` [Carbamazepine]: the LC retention time came to 18 min.

For the molecule `COC(=O)Nc1nc2ccccc2[nH]1` [Carbendazim], the LC retention time was determined as 5.69 min. For the molecule `CCNC(=O)C(C)OC(=O)Nc1ccccc1` (configuration not stated) [Carbetamide], the LC retention time was found to be 13.5 min. To `CNC(=O)Oc1cccc2c1OC(C)(C)C2` [Carbofuran] belongs 18.6 min; to `CNC(=O)c1cc(Cl)cc(C)c1NC(=O)c1cc(Br)nn1-c1ncccc1Cl` [Chlorantraniliprole], 30.9 min; to `Nc1cnn(-c2ccccc2)c(=O)c1Cl` [Chloridazon], 9.25 min. The same measure for `COP(=S)(OC)Oc1nc(Cl)c(Cl)cc1Cl` [Chlorpyrifos-methyl]: 43.9 min; for `CCOP(=S)(OCC)Oc1nc(Cl)c(Cl)cc1Cl` [Chlorpyrifos]: 45.5 min. As for `Cc1ccc(NC(=O)N(C)C)cc1Cl` [Chlortoluron], the LC retention time amounted to 20.5 min. On to `CNC(=N[N+](=O)[O-])NCc1cnc(Cl)s1` [Clothianidin], for which the LC retention time turned out to be 7.99 min. The same measure for `COc1ccc2c3c1OC1C(O)C=CC4C(C2)N(C)CCC341` (configuration not stated) [Codeine]: 5.12 min. Regarding `CC12CCC(=O)C=C1CCC1C2C(=O)CC2(C)C1CCC2(O)C(=O)CO` (configuration not stated) [Cortisone], the LC retention time came out at 16.1 min. For `CN1C(=O)CCC1c1ccc[n+](C2OC(C(=O)[O-])C(O)C(O)C2O)c1` (configuration not stated) [Cotinine glucuronide], the LC retention time worked out at 1.4 min. The same measure for `CN1C(=O)CCC1c1cccnc1` (configuration not stated) [Cotinine]: 4.31 min; for `Cc1cc(C2CC2)nc(Nc2ccccc2)n1` [Cyprodinil]: 33.2 min. With `CC12CCC3C(CC=C4CC(O)CCC43C)C1CCC2=O` (configuration not stated) [Dehydroepiandrosterone], the LC retention time came to 31.7 min. The same measure for `CCOP(=S)(OCC)Oc1cc(C)nc(C(C)C)n1` [Diazinon]: 43.4 min; for `CC(Oc1ccc(Cl)cc1Cl)C(=O)O` (configuration not stated) [Dichlorprop]: 10 min. With `O=C(O)Cc1ccccc1Nc1c(Cl)cccc1Cl` [Diclofenac], the LC retention time amounted to 39.6 min. To `COCC(C)N(C(=O)CCl)c1c(C)csc1C` (configuration not stated) [Dimethenamid] belongs 32.5 min. For `COc1ccc(C(=CC(=O)N2CCOCC2)c2ccc(Cl)cc2)cc1OC` [Dimethomorph], the LC retention time was determined as 32.7 min. Consider `COP(=S)(S)OC` [Dimethyldithiophosphate], for which the LC retention time came to 2.95 min. The same measure for `CN(C)C(=O)Nc1ccc(Cl)c(Cl)c1` [Diuron]: 23.7 min; for `NCCc1ccc(O)c(O)c1` [Dopamine]: 3.88 min; for `CNCC(O)c1ccc(O)c(O)c1` (configuration not stated) [Epinephrine]: 4.39 min. The same measure for `CC12CCC3c4cc(O)c(O)cc4CCC3C1CCC2O` (configuration not stated) [Estradiol-2-hydroxy]: 21.5 min; for `CC12CCC3c4ccc(O)cc4CCC3C1CC(O)C2O` (configuration not stated) [Estriol]: 11.7 min. With `CC12CCC3c4cc(O)c(O)cc4CCC3C1CCC2=O` (configuration not stated) [Estrone-2-hydroxy], the LC retention time is 24.6 min. To `CC12CCC3c4ccc(O)cc4CCC3C1CCC2=O` (configuration not stated) [Estrone] belongs 31.6 min.

For `CCS(=O)(=O)c1nnc(N(C)C(=O)NC)s1` [Ethidimuron], the LC retention time amounted to 9.06 min. To `C#CC1(O)CCC2C3CCc4cc(O)ccc4C3CCC21C` (configuration not stated) [Ethinylestradiol] belongs 31.6 min; to `CSC1=NC(C)(c2ccccc2)C(=O)N1Nc1ccccc1` (configuration not stated) [Fenamidone], 35.8 min. Take `CC(Cc1ccc(C(C)(C)C)cc1)CN1CCCCC1` (configuration not stated) [Fenpropidine]: the LC retention time was 26.2 min. For the molecule `CC(Cc1ccc(C(C)(C)C)cc1)CN1CC(C)OC(C)C1` (configuration not stated) [Fenpropimorph], the LC retention time stood at 30.1 min. To `N#CCNC(=O)c1cnccc1C(F)(F)F` [Flonicamid] belongs 7.52 min.
